Source: patent US11827704B2, “Antibody molecules to PD-1 and uses thereof” (Novartis AG, priority 2014, dated 2023)
Read-outs that look alike come from different tables or passages of the source.

Key:
[1] = tested on: PD-L1 (CD274) mRNA in Hs.746.T tumor; assay: TaqMan RT PCR of PD-L1 mRNA in Hs.746.T tumor xenograft; assay type: in vivo, human; conditions: Hs.746.T tumor (gastric cancer cell with cMET amplification & mutation) xenograft; FIG. 16
[2] = tested on: PD-L1 (CD274) surface expression in EBC-1 cells; assay: Flow cytometry of PD-L1 surface expression in EBC-1 cells in vitro; assay type: cell-based, human; conditions: EBC-1 cells (NSCLC with cMET amplification); 10 nM, 100 nM, 1000 nM for 24, 48 and 72 hours; FIG. 15
Protocol: PD-L1 (CD274) expression was analyzed in cancer cell lines treated with Compound A17. Cells were obtained from ATCC and cultured in vitro following ATCC directions. The cell lines used were previously characterized by the Cancer Cell Line Encyclopedia Project (broadinstitute.org/ccle/home).
Cells plated in six-well culture plates were treated with the Compound A17 at different concentrations (10 nM, 100 nM, and 1000 nM) for 24, 48 and 72 hours. Equal amount of vehicle (DMSO) was used as a control. Cells were washed with PBS and then harvested using a cell scraper.
For each reaction, 0.5-1×10^6 cells were stained with 20 μL of anti-human monoclonal PD-L1-PE antibody, clone M1H1 (BD) for 30-60 minutes at 4° C. Cells were washed twice and data was acquired using a Canto II with FACSDiva software (BD Bioscience). Data analysis was performed using FlowJo software (Tree Star). Mean fluorescence intensity (MFI) was determined by gating on single cells. Unstained cells were used as a gating control.

[3] = tested on: PD-L1 (CD274) mRNA in LOXIMV1 tumors; assay: TaqMan RT PCR of PD-L1 mRNA in LOXIMV1 tumor xenograft model; assay type: in vivo, human; conditions: tumor xenograft model bearing LOXIMV1 (BRAF mutant melanoma); FIG. 18
Protocol: (§1) TaqMan RT PCR assays were developed to detect changes of expression levels of PD-L1 (CD274) in cell lines and xenograft tumors. mRNA was isolated from frozen cell pellets or tumor fragments using the Qiagen RNeasy Mini kit. Isolated RNA was frozen at −80° C. RNA quality was checked and RNA was quantified using a 2100 Agilent Bioanalyzer following the protocol for the Agilent RNA 6000 Nano Kit. cDNA was prepared using a High Capacity RNA- to cDNA Kit (Applied Biosystems).
(§2) Real-time PCR reactions were carried out in 20 μl total volume, including 10 μl of Universal PCR master mix (Applied Biosystems), 1 μl of human PD-L1 (CD274) probe/primer set (Applied Biosystems), and 8 μl of cDNA. Each sample was run in triplicate. The amount of cDNA produced from 25-50 ng of RNA in the reverse transcription reaction was used in each PCR reaction. Due to difference in mRNA levels between PD-L1 and GAPDH, the two real-time PCR reactions were done in separate tubes using same amount of cDNA. The real-time PCR reaction was run on the C1000 Thermal Cycle (BioRad) with the cycle program as follows: a 10 minute incubation at 95° C. followed by 40 cycles of 95° C. for 15 seconds and 60° C. for 1 minute. After the reaction was complete, the PD-L1 average Ct was normalized relative to each Ct value from the GAPDH reference reaction. Each normalized logarithmic value was then converted into a linear value.

[4] = tested on: PD-L1 (CD274) mRNA in UKE-1 tumors; assay: TaqMan RT PCR of PD-L1 mRNA in UKE-1 tumor xenograft model; assay type: in vivo, human; conditions: tumor xenograft model bearing UKE-1 (MPN line with JAK2V617F mutation); FIG. 20
[5] = tested on: PD-L1 (CD274) mRNA in HEYA8 tumors; assay: TaqMan RT PCR of PD-L1 mRNA in HEYA8 tumor xenograft model; assay type: in vivo, human; conditions: tumor xenograft model bearing HEYA8 (KRAS mutant ovarian cancer); FIG. 19
Protocol: as §1, §2

[6] = tested on: PD-L1 (CD274) mRNA in H3122 cells; assay: TaqMan RT PCR of PD-L1 mRNA in H3122 cells in vitro; assay type: cell-based, human; conditions: H3122 (NSCLC with ALK translocation) in vitro; FIG. 17
Protocol: as §1, §2

IFN-γ expression = assay type: cell-based
CD8^+ T cells = assay: Proliferation of CD8+ T cells activated with CMV peptides; assay type: cell-based; conditions: percentages of CD8+ cells that passed through at least n cell divisions (n=2, 4, 6)

CNC(=O)c1ccc(-c2cnc3ncc(Cc4ccc5ncccc5c4)n3n2)cc1F [Compound A17, 2-fluoro-N-methyl-4-(7-(quinolin-6-ylmethyl)imidazo[1,2-b][1,2,4]triazin-2-yl)benzamide]
PD-L1 expression (mRNA) [1]: Inhibition
surface expression of PD-L1 (flow cytometry) [2]: significant downregulation

COC(=O)N[C@@H](C)CNc1nccc(-c2cn(C(C)C)nc2-c2cc(Cl)cc(NS(C)(=O)=O)c2F)n1 [Compound A29, Encorafenib]
PD-L1 mRNA [3]: Downregulation

N#CC[C@H](C1CCCC1)n1cc(-c2ncnc3[nH]ccc23)cn1 [Compound A18, Ruxolitinib Phosphate]
PD-L1 mRNA [4]: Downregulation

Cn1cnc2c(F)c(Nc3ccc(Br)cc3F)c(C(=O)NOCCO)cc21 [Compound A34, Binimetinib]
PD-L1 mRNA [5]: Downregulation

Cc1cc(Nc2ncc(Cl)c(Nc3ccccc3S(=O)(=O)C(C)C)n2)c(OC(C)C)cc1C1CCNCC1 [Compound A23, ceritinib]
PD-L1 mRNA [6]: Inhibition

B1: BAP049: murine anti-PD-1 monoclonal antibody; sequences in Table 1 (antibody, V domains shown)
VH: QVQLQQSGSELVRPGASVKLSCKASGYTFTTYWMHWVRQRPGQGLEWIGNIYPGTGGSNFDEKFKNRTSLTVDTSSTTAYMHLASLTSEDSAVYYCTRWTTGTGAYWGQGTLVTVSA
VL: DIVMTQSPSSLTVTAGEKVTMSCKSSQSLLDSGNQKNFLTWYQQKPGQPPKLLIFWASTRESGVPDRFTGSGSVTDFTLTISSVQAEDLAVYYCQNDYSYPCTFGGGTKLEIK
fold increase in IFN-γ expression (IFN-γ expression): 2.8±0.8 fold
fold increase in IFN-γ expression (IFN-γ expression; cells stimulated with Staphylococcal enterotoxin B (SEB) (3 μg/mL)): 2.5±2.0 fold
proliferation of CD8+ T cells activated with CMV peptides (CD8^+ T cells): increase proliferation
